Among the data in the supplement of paper PMC10307832 are relative viability values, retold here.

What all share (assay): relative viability (nuclei count vs DMSO), 5 days (fraction); higher = more cells survive
Compound in the assay “BI-D1870 + Crizotinib”: CC(C)CCN1c2nc(Nc3cc(F)c(O)c(F)c3)ncc2N(C)C(=O)C1C [BI-D1870] + C[C@@H](Oc1cc(-c2cnn(C3CCNCC3)c2)cnc1N)c1c(Cl)ccc(F)c1Cl [Crizotinib] (partner 1 µM)
An outline of the steps:
(§1)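 Lung cancer cell lines in 1536-well plates got either a single drug or a fixed anchor-drug dose together with five library-drug doses (not always all listed) in √10 steps, by pin tool, on the day after seeding. Nuclei were counted after 5 days, and relative viability is the treated-to-vehicle ratio of nuclei counts. Values are medians of duplicate plates.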

Compound in the assay “Zebularine + Navitoclax”: O=c1ncccn1[C@@H]1O[C@H](CO)[C@@H](O)[C@H]1O [Zebularine] + CC1(C)CCC(c2ccc(Cl)cc2)=C(CN2CCN(c3ccc(C(=O)NS(=O)(=O)c4ccc(N[C@H](CCN5CCOCC5)CSc5ccccc5)c(S(=O)(=O)C(F)(F)F)c4)cc3)CC2)C1 [Navitoclax] (partner 0.5 µM)
An outline of the steps:
as §1

Compound in the assay “Zebularine + Luminespib”: O=c1ncccn1[C@@H]1O[C@H](CO)[C@@H](O)[C@H]1O [Zebularine] + CCNC(=O)c1noc(-c2cc(C(C)C)c(O)cc2O)c1-c1ccc(CN2CCOCC2)cc1 [Luminespib] (partner 0.01 µM)
The procedure, abridged:
as §1

Compound in the assay “Zebularine + Dasatinib”: O=c1ncccn1[C@@H]1O[C@H](CO)[C@@H](O)[C@H]1O [Zebularine] + Cc1nc(Nc2ncc(C(=O)Nc3c(C)cccc3Cl)s2)cc(N2CCN(CCO)CC2)n1 [Dasatinib] (partner 0.075 µM)
An outline of the steps:
as §1

With NCI-H3122, the relative viability turned out to be 0.283 with BI-D1870 + Crizotinib (first compound 0.04 µM); 0.275 with BI-D1870 + Crizotinib (first compound 0.1265 µM); 0.293 in the assay with BI-D1870 + Crizotinib (first compound 0.4 µM); 0.28 in the assay with BI-D1870 + Crizotinib (first compound 1.265 µM); 0.325 in the assay with BI-D1870 + Crizotinib (first compound 4 µM); 1.06 in the assay with Zebularine + Navitoclax (first compound 1 µM). The relative viability with Zebularine + Navitoclax (first compound 3.162 µM) is 1.02; with Zebularine + Navitoclax (first compound 10 µM), 0.943; with Zebularine + Navitoclax (first compound 31.62 µM), 1.08; with Zebularine + Navitoclax (first compound 100 µM), 1.02; in the assay with Zebularine + Luminespib (first compound 1 µM), 0.11; with Zebularine + Luminespib (first compound 3.162 µM), 0.0829. For the same cell line, the relative viability in the assay with Zebularine + Luminespib (first compound 31.62 µM) amounted to 0.111; with Zebularine + Luminespib (first compound 100 µM), 0.0803; in the assay with Zebularine + Dasatinib (first compound 1 µM), 0.981; in the assay with Zebularine + Dasatinib (first compound 3.162 µM) it was 0.79; with Zebularine + Dasatinib (first compound 31.62 µM), 0.889; with Zebularine + Dasatinib (first compound 100 µM) it was 0.918.

For PC-3 [JPC-3], the relative viability with BI-D1870 + Crizotinib (first compound 0.04 µM) amounted to 1.01; with BI-D1870 + Crizotinib (first compound 0.1265 µM), 0.898; with BI-D1870 + Crizotinib (first compound 0.4 µM), 1.05; in the assay with BI-D1870 + Crizotinib (first compound 1.265 µM), 1.05; with BI-D1870 + Crizotinib (first compound 4 µM), 0.97; with Zebularine + Navitoclax (first compound 1 µM) it was 0.751. For the same cell line, the relative viability with Zebularine + Navitoclax (first compound 3.162 µM) was found to be 0.749; with Zebularine + Navitoclax (first compound 10 µM) it was 0.603; with Zebularine + Navitoclax (first compound 31.62 µM), 0.748; with Zebularine + Navitoclax (first compound 100 µM), 0.583; with Zebularine + Luminespib (first compound 1 µM) it was 0.79; with Zebularine + Luminespib (first compound 3.162 µM), 0.667. The relative viability amounted to 0.553 with Zebularine + Luminespib (first compound 10 µM); 0.466 in the assay with Zebularine + Luminespib (first compound 31.62 µM); 0.493 in the assay with Zebularine + Luminespib (first compound 100 µM); 1.05 with Zebularine + Dasatinib (first compound 1 µM); 1.05 with Zebularine + Dasatinib (first compound 3.162 µM); 0.61 in the assay with Zebularine + Dasatinib (first compound 10 µM). The relative viability in the assay with Zebularine + Dasatinib (first compound 31.62 µM) turned out to be 0.979; in the assay with Zebularine + Dasatinib (first compound 100 µM) it was 0.79.

Regarding PC-14, the relative viability in the assay with BI-D1870 + Crizotinib (first compound 0.04 µM) came to 1.03; with BI-D1870 + Crizotinib (first compound 0.1265 µM), 0.909; in the assay with BI-D1870 + Crizotinib (first compound 0.4 µM), 0.797; with BI-D1870 + Crizotinib (first compound 1.265 µM) it was 0.923; with BI-D1870 + Crizotinib (first compound 4 µM), 0.768; with Zebularine + Navitoclax (first compound 1 µM) it was 1.07. In addition, the relative viability in the assay with Zebularine + Navitoclax (first compound 3.162 µM) came out at 1.06; in the assay with Zebularine + Navitoclax (first compound 10 µM), 0.346; with Zebularine + Navitoclax (first compound 31.62 µM), 0.113; in the assay with Zebularine + Navitoclax (first compound 100 µM), 0.129; in the assay with Zebularine + Luminespib (first compound 1 µM), 0.107; in the assay with Zebularine + Luminespib (first compound 3.162 µM), 0.134. Further, the relative viability with Zebularine + Luminespib (first compound 10 µM) was determined as 0.158; with Zebularine + Luminespib (first compound 31.62 µM), 0.131; with Zebularine + Luminespib (first compound 100 µM), 0.157; with Zebularine + Dasatinib (first compound 1 µM), 0.301; with Zebularine + Dasatinib (first compound 3.162 µM), 0.198; with Zebularine + Dasatinib (first compound 10 µM), 0.224. Further, the relative viability worked out at 0.0811 in the assay with Zebularine + Dasatinib (first compound 31.62 µM) and 0.0854 with Zebularine + Dasatinib (first compound 100 µM).

As to RERF-LC-KJ, the relative viability with BI-D1870 + Crizotinib (first compound 0.04 µM) is 0.892; in the assay with BI-D1870 + Crizotinib (first compound 0.1265 µM), 0.853; in the assay with BI-D1870 + Crizotinib (first compound 0.4 µM), 0.847; with BI-D1870 + Crizotinib (first compound 1.265 µM) it was 0.857; in the assay with BI-D1870 + Crizotinib (first compound 4 µM), 0.792; with Zebularine + Navitoclax (first compound 3.162 µM), 1.08. Moreover, the relative viability with Zebularine + Navitoclax (first compound 10 µM) came out at 0.507; with Zebularine + Navitoclax (first compound 31.62 µM) it was 0.939; with Zebularine + Navitoclax (first compound 100 µM) it was 0.968; in the assay with Zebularine + Luminespib (first compound 1 µM), 1.29; in the assay with Zebularine + Luminespib (first compound 3.162 µM), 1.17; with Zebularine + Luminespib (first compound 10 µM) it was 0.827. Also, the relative viability with Zebularine + Luminespib (first compound 31.62 µM) turned out to be 1.54; with Zebularine + Luminespib (first compound 100 µM), 1.53; with Zebularine + Dasatinib (first compound 1 µM), 0.92; with Zebularine + Dasatinib (first compound 3.162 µM) it was 0.81; with Zebularine + Dasatinib (first compound 10 µM), 0.759; with Zebularine + Dasatinib (first compound 31.62 µM) it was 0.999. For the same cell line, the relative viability with Zebularine + Dasatinib (first compound 100 µM) is 0.956.

Turning to SK-LU-1, the relative viability in the assay with BI-D1870 + Crizotinib (first compound 0.04 µM) turned out to be 1.14; with BI-D1870 + Crizotinib (first compound 0.1265 µM), 0.81; in the assay with BI-D1870 + Crizotinib (first compound 0.4 µM), 0.88; with BI-D1870 + Crizotinib (first compound 1.265 µM), 0.859; in the assay with BI-D1870 + Crizotinib (first compound 4 µM) it was 0.315; with Zebularine + Navitoclax (first compound 1 µM), 0.965. Besides, the relative viability with Zebularine + Navitoclax (first compound 3.162 µM) turned out to be 0.868; with Zebularine + Navitoclax (first compound 10 µM), 0.435; with Zebularine + Navitoclax (first compound 31.62 µM) it was 0.61; with Zebularine + Navitoclax (first compound 100 µM) it was 0.306; in the assay with Zebularine + Luminespib (first compound 1 µM) it was 0.231; in the assay with Zebularine + Luminespib (first compound 3.162 µM) it was 0.187. The relative viability with Zebularine + Luminespib (first compound 10 µM) amounted to 0.22; with Zebularine + Luminespib (first compound 31.62 µM) it was 0.229; with Zebularine + Luminespib (first compound 100 µM), 0.183; with Zebularine + Dasatinib (first compound 1 µM), 0.168; with Zebularine + Dasatinib (first compound 3.162 µM), 0.184; in the assay with Zebularine + Dasatinib (first compound 10 µM), 0.162. Moreover, the relative viability worked out at 0.172 with Zebularine + Dasatinib (first compound 31.62 µM) and 0.144 in the assay with Zebularine + Dasatinib (first compound 100 µM).

Turning to SK-MES-1, the relative viability with BI-D1870 + Crizotinib (first compound 0.04 µM) is 1.09; with BI-D1870 + Crizotinib (first compound 0.1265 µM), 0.88; with BI-D1870 + Crizotinib (first compound 0.4 µM) it was 0.864; with BI-D1870 + Crizotinib (first compound 1.265 µM), 0.78; in the assay with BI-D1870 + Crizotinib (first compound 4 µM) it was 0.569; with Zebularine + Navitoclax (first compound 1 µM), 1.41. In addition, the relative viability with Zebularine + Navitoclax (first compound 3.162 µM) is 1.32; with Zebularine + Navitoclax (first compound 10 µM) it was 0.781; in the assay with Zebularine + Navitoclax (first compound 31.62 µM), 0.526; with Zebularine + Navitoclax (first compound 100 µM) it was 0.33; in the assay with Zebularine + Luminespib (first compound 1 µM), 0.656; with Zebularine + Luminespib (first compound 3.162 µM), 0.755. For the same cell line, the relative viability in the assay with Zebularine + Luminespib (first compound 10 µM) stood at 0.458; in the assay with Zebularine + Luminespib (first compound 31.62 µM), 0.347; in the assay with Zebularine + Luminespib (first compound 100 µM), 0.251; with Zebularine + Dasatinib (first compound 1 µM), 0.386; with Zebularine + Dasatinib (first compound 3.162 µM), 0.423; with Zebularine + Dasatinib (first compound 10 µM), 0.356. Also, the relative viability with Zebularine + Dasatinib (first compound 31.62 µM) came out at 0.299; in the assay with Zebularine + Dasatinib (first compound 100 µM) it was 0.166.

Turning to SW 1573, the relative viability in the assay with BI-D1870 + Crizotinib (first compound 0.04 µM) is 1.01; with BI-D1870 + Crizotinib (first compound 0.1265 µM) it was 0.808; in the assay with BI-D1870 + Crizotinib (first compound 0.4 µM) it was 0.876; with BI-D1870 + Crizotinib (first compound 1.265 µM) it was 0.905; with BI-D1870 + Crizotinib (first compound 4 µM), 0.597; with Zebularine + Navitoclax (first compound 1 µM), 1.04. The relative viability with Zebularine + Navitoclax (first compound 3.162 µM) was 0.735; with Zebularine + Navitoclax (first compound 10 µM), 0.6; in the assay with Zebularine + Navitoclax (first compound 31.62 µM), 0.947; with Zebularine + Navitoclax (first compound 100 µM) it was 0.529; with Zebularine + Luminespib (first compound 1 µM), 0.181; with Zebularine + Luminespib (first compound 3.162 µM), 0.34. The relative viability in the assay with Zebularine + Luminespib (first compound 10 µM) is 0.173; with Zebularine + Luminespib (first compound 31.62 µM) it was 0.41; in the assay with Zebularine + Luminespib (first compound 100 µM) it was 0.285; with Zebularine + Dasatinib (first compound 1 µM), 0.555; with Zebularine + Dasatinib (first compound 3.162 µM) it was 0.523; with Zebularine + Dasatinib (first compound 31.62 µM), 0.548. Further, the relative viability with Zebularine + Dasatinib (first compound 100 µM) was 0.475.
